According to US11986452B2, “Methods of reducing the risk of heart failure” (Amarin Pharmaceuticals Ireland Limited, priority 2021, dated 2024):

Tested on: TG, non-HDL-C, LDL-C, HDL-C, Apo B, hsCRP
Test: REDUCE-IT fasting lipid profile and biomarker assays over time
Assay type: in vivo, human
Conditions: for Apo B between group difference vs placebo, median % change from baseline / Apo B between group difference vs placebo, median absolute change from baseline / HDL-C between group difference vs placebo, median % change from baseline / HDL-C between group difference vs placebo, median absolute change from baseline / LDL-C Hopkins between group difference vs placebo, median % change from baseline / LDL-C Hopkins between group difference vs placebo, median absolute change from baseline / LDL-C derived between group difference vs placebo, median % change from baseline / LDL-C derived between group difference vs placebo, median absolute change from baseline / Log hsCRP between group difference vs placebo, median absolute change from baseline / Non-HDL-C between group difference vs placebo, median % change from baseline / Non-HDL-C between group difference vs placebo, median absolute change from baseline / Triglycerides between group difference vs placebo, median absolute change from baseline / hsCRP between group difference vs placebo, median absolute change from baseline: ITT
Experimental: Fasting Lipid Profile: The fasting lipid panel included: TG, TC, LDL-C, HDL-C, non-HDL-C, and VLDL-C. At all visits, LDL-C was calculated using the Friedewald equation. At Visit 1 and Visit 1.1 direct LDL-C were used if at the same visit TG>400 mg/dL (4.52 mmol/L). These LDL-C values were used for the evaluation of the LDL-C inclusion criterion (LDL-C qualifying measurements for randomization) and for the assessment of changes in the statin therapy when LDL-C was not at goal. […] In addition, irrespective of the TG levels, at Visit 2 (0 Months of Follow-up, baseline) and at Visit 4 (12 Months of Follow-up), LDL-C were measured by preparative ultracentrifugation. These preparative ultracentrifugation LDL-C measurements were used in the statistical analysis including the calculation of the percent change from baseline (1 year versus baseline). Hopkins LDL-C was calculated for each visit.
Biomarkers Assays: The biomarker assays included: hsCRP, Apo B and hsTnT.
The fasting lipid panel was tested at Screening (Visit 1 or Visit 1.1), Randomization visit (Visit 2; Day 0), Visit 3 (Day 120; ˜4 Months) and all other follow-up visits including the last visit. For change from baseline to 1 year preparative ultracentrifugation measurements for LDL-C were analyzed, unless this value was missing. If the LDL-C preparative ultracentrifugation values were missing, then another LDL-C value was used, with prioritization of values obtained from LDL-C Direct measurements, followed by LDL-C derived by the Friedewald calculation (only for subjects with TG<400 mg/dL), and finally LDL-C derived using the calculation published by Hopkins University investigators (Martin S S, Blaha M J, Elshazly M B, et al. Comparison of a novel method vs the Friedewald equation for estimating low-density lipoprotein cholesterol levels from the standard lipid profile. JAMA. 2013; 310:2061-8.). In addition, change from baseline to day 120 in LDL-C utilizing Friedewald's and Hopkins methods was analyzed, using the arithmetic mean of LDL-C obtained at Visit 2 (Day 0) and the preceding Visit 1 (or Visit 1.1). If one of these values was missing, the single available LDL-C value was used. LDL-C according to Hopkins was calculated at each visit.
The randomization visit was considered Baseline. If a baseline value was not available from the randomization visit, then the latest screening value was used. For measurements of lipids, lipoproteins and inflammatory markers, the change and the percent change were summarized at each visit. Since these biomarkers are typically not normally distributed, the Wilcoxon rank-sum test was used for treatment comparisons of the percent change from baseline, and medians and quartiles were provided for each treatment group. The medians of the differences between the treatment groups and 95% CIs were estimated with the Hodges-Lehmann method. In addition, shift-tables were generated as appropriate.

CC/C=C\C/C=C\C/C=C\C/C=C\C/C=C\CCCC(=O)OCC [icosapent ethyl, eicosapentaenoic acid ethyl ester]
Apo B between group difference vs placebo, median % change from baseline (Last Visit): −6.7% | Apo B between group difference vs placebo, median absolute change from baseline (Last Visit): -5.0 mg/dL | HDL-C between group difference vs placebo, median % change from baseline (Last Visit): −3.0% | HDL-C between group difference vs placebo, median absolute change from baseline (Last Visit): -1.0 mg/dL | LDL-C Hopkins between group difference vs placebo, median % change from baseline (Last Visit): −7.4% | LDL-C Hopkins between group difference vs placebo, median absolute change from baseline (Last Visit): -6.2 mg/dL | LDL-C derived between group difference vs placebo, median % change from baseline (Last Visit): −6.6% | LDL-C derived between group difference vs placebo, median absolute change from baseline (Last Visit): -5.0 mg/dL | Log hsCRP between group difference vs placebo, median absolute change from baseline (Last Visit): −0.4 mg/L | Non-HDL-C between group difference vs placebo, median % change from baseline (Last Visit): −8.6% | Non-HDL-C between group difference vs placebo, median absolute change from baseline (Last Visit): -10.0 mg/dL | Triglycerides between group difference vs placebo, median absolute change from baseline (Last Visit): -32.0 mg/dL | hsCRP between group difference vs placebo, median absolute change from baseline (Last Visit): -0.8 mg/L | HDL-C between group difference vs placebo, median % change from baseline (Month 4): −7.2% | HDL-C between group difference vs placebo, median absolute change from baseline (Month 4): -3.0 mg/dL | LDL-C Hopkins between group difference vs placebo, median absolute change from baseline (Month 4): -8.7 mg/dL | Apo B median value (Year 1 (Table 18)): 80.0 mg/dL | hsCRP median value (Year 1 (Table 18)): 1.8 mg/L | HDL-C between group difference vs placebo, median % change from baseline (Year 1): −6.3% | HDL-C between group difference vs placebo, median absolute change from baseline (Year 1): -2.5 mg/dL | LDL-C Hopkins between group difference vs placebo, median absolute change from baseline (Year 1): -9.6 mg/dL | LDL-C derived between group difference vs placebo, median % change from baseline (Year 1): −6.6% | LDL-C derived between group difference vs placebo, median absolute change from baseline (Year 1): -5.0 mg/dL | Apo B between group difference vs placebo, median % change from baseline (Year 2): −9.7% | Apo B between group difference vs placebo, median absolute change from baseline (Year 2): -8.0 mg/dL | HDL-C between group difference vs placebo, median % change from baseline (Year 2): −4.6% | HDL-C between group difference vs placebo, median absolute change from baseline (Year 2): -2.0 mg/dL | LDL-C Hopkins between group difference vs placebo, median absolute change from baseline (Year 2): -9.4 mg/dL | Log hsCRP between group difference vs placebo, median absolute change from baseline (Year 2): −0.4 mg/L | hsCRP between group difference vs placebo, median absolute change from baseline (Year 2): -0.9 mg/L | HDL-C between group difference vs placebo, median % change from baseline (Year 3): −3.8% | HDL-C between group difference vs placebo, median absolute change from baseline (Year 3): -1.5 mg/dL | LDL-C Hopkins between group difference vs placebo, median absolute change from baseline (Year 3): -8.7 mg/dL | HDL-C between group difference vs placebo, median % change from baseline (Year 4): −3.9% | HDL-C between group difference vs placebo, median absolute change from baseline (Year 4): -1.5 mg/dL | LDL-C Hopkins between group difference vs placebo, median absolute change from baseline (Year 4): -8.9 mg/dL | Non-HDL-C between group difference vs placebo, median % change from baseline (Year 4): −12.0% | Non-HDL-C between group difference vs placebo, median absolute change from baseline (Year 4): -14.0 mg/dL | Triglycerides between group difference vs placebo, median absolute change from baseline (Year 4): -38.0 mg/dL | HDL-C between group difference vs placebo, median % change from baseline (Year 5): −3.0% | HDL-C between group difference vs placebo, median absolute change from baseline (Year 5): -1.5 mg/dL | LDL-C Hopkins between group difference vs placebo, median % change from baseline (Year 5): −8.0% | LDL-C Hopkins between group difference vs placebo, median absolute change from baseline (Year 5): -6.6 mg/dL | Non-HDL-C between group difference vs placebo, median % change from baseline (Year 5): −9.9% | Non-HDL-C between group difference vs placebo, median absolute change from baseline (Year 5): -11.0 mg/dL | Triglycerides: median reduction from baseline greater than in placebo group (Hodges-Lehmann) (baseline to one year): 19.7%
